Test results as given in patent publication US12486253B2, “Therapeutics for the degradation of mutant BRAF” (C4 THERAPEUTICS, INC., priority 2021, dated 2025).
Where two headings read alike, the source gives them in different places.

Molecular target: BRAF V600E (Homo sapiens, UniProt P15056, V600E)
Experiment: HiBiT cellular BRAF^V600E degradation assay
Format: cell-based
Conditions: for DC50: concentration at which 50% of total cellular BRAF^V600E is degraded; for Emax: read-out: HiBit 24 h Emax
[1] = A375.10 cells, 24 h, residual protein remaining in the cell

BRAF V600E, sequence (P15056 whole entry V600E): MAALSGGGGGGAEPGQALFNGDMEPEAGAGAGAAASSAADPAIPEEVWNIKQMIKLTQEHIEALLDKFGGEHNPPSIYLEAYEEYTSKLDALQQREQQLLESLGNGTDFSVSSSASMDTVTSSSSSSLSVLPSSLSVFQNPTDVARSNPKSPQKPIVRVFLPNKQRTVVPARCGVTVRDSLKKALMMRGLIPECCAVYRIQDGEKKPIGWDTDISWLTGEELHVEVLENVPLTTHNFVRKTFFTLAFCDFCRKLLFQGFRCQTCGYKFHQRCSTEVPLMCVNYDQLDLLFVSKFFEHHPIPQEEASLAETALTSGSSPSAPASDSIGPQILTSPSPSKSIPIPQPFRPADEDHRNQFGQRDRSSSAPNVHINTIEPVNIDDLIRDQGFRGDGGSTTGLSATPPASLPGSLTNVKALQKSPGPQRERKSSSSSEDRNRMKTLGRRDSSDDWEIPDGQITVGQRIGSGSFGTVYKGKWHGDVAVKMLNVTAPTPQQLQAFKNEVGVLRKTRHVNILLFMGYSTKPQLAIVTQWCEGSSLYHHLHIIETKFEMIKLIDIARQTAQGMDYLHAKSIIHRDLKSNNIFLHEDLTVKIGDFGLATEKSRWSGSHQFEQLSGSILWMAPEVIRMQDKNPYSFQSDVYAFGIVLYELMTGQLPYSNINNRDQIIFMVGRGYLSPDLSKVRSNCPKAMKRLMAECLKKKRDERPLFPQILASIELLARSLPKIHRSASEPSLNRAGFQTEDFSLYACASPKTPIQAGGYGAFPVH

DC50 (A375.10 cells, 24 h)	Emax [1]	SMILES	Emax
0.00828 µM	12.9%	CCN(C)S(=O)(=O)Nc1ccc(F)c(Oc2ccc3ncn(-c4cnc(N5CCN(C(=O)CN6CCC(c7ccc(NC8CCC(=O)NC8=O)cc7F)CC6)CC5)nc4)c(=O)c3c2F)c1C#N (stereo not shown) [Example 86, 6-[2-cyano-3-[[ethyl(methyl)sulfamoyl]amino]-6-fluorophenoxy]-3-[2-[4-[2-[4-[4-[(2,6-dioxopiperidin-3-yl)amino]-2-fluorophenyl]piperidin-1-yl]acetyl]piperazin-1-yl]pyrimidin-5-yl]-5-fluoro-4-oxoquinazoline]	
0.0303 µM	10.1%	CCN(C)S(=O)(=O)Nc1ccc(F)c(Oc2ccc3ncn(-c4ccc(N5CCN(C(=O)CN6CCC(c7c(F)cc(NC8CCC(=O)NC8=O)cc7OC)CC6)CC5)nc4)c(=O)c3c2)c1C#N (stereo not shown) [Example 87, 6-[2-cyano-3-[[ethyl(methyl)sulfamoyl]amino]-6-fluorophenoxy]-3-[6-[4-[2-[4-[4-[(2,6-dioxopiperidin-3-yl)amino]-2-fluoro-6-methoxyphenyl]piperidin-1-yl]acetyl]piperazin-1-yl]pyridin-3-yl]-4-oxoquinazoline]	
0.033 µM	11.5%	CCN(C)S(=O)(=O)Nc1ccc(F)c(Oc2ccc3ncn(-c4cnc(N5CCN(C(=O)CN6CCC(c7c(F)cc(NC8CCC(=O)NC8=O)cc7OC)CC6)CC5)nc4)c(=O)c3c2)c1C#N (stereo not shown) [Example 89, 6-[2-cyano-3-[[ethyl(methyl)sulfamoyl]amino]-6-fluorophenoxy]-3-[2-[4-[2-[4-[4-[(2,6-dioxopiperidin-3-yl)amino]-2-fluoro-6-methoxyphenyl]piperidin-1-yl]acetyl]piperazin-1-yl]pyrimidin-5-yl]-4-oxoquinazoline]	
0.028 µM	14.1%	CCN(C)S(=O)(=O)Nc1ccc(F)c(Oc2ccc3ncn(-c4ccc(N5CCN(C(=O)CN6CCC(c7ccc(N[C@@H]8CCC(=O)NC8=O)cc7F)CC6)CC5)nc4)c(=O)c3c2)c1C#N [Example 93, 6-[2-cyano-3-[[ethyl(methyl)sulfamoyl]amino]-6-fluorophenoxy]-3-[6-[4-[2-[4-[4-[[(3R)-2,6-dioxopiperidin-3-yl]amino]-2-fluorophenyl]piperidin-1-yl]acetyl]piperazin-1-yl]pyridin-3-yl]-4-oxoquinazoline]	
0.0215 µM	10.5%	CCN(C)S(=O)(=O)Nc1ccc(F)c(Oc2ccc3ncn(-c4ccc(N5CCN(C(=O)CN6CCC(c7ccc(N[C@H]8CCC(=O)NC8=O)cc7F)CC6)CC5)nc4)c(=O)c3c2)c1C#N [Example 94, 6-[2-cyano-3-[[ethyl(methyl)sulfamoyl]amino]-6-fluorophenoxy]-3-[6-[4-[2-[4-[4-[[(3S)-2,6-dioxopiperidin-3-yl]amino]-2-fluorophenyl]piperidin-1-yl]acetyl]piperazin-1-yl]pyridin-3-yl]-4-oxoquinazoline]	
0.00841 µM	10.6%	CO[C@@H]1CCN(S(=O)(=O)Nc2ccc(F)c(Oc3ccc4ncn(-c5cnc(N6CCN(C(=O)CN7CCC(c8ccc(N[C@@H]9CCC(=O)NC9=O)cc8F)CC7)CC6)nc5)c(=O)c4c3)c2C#N)C1 [Example 97, (3R)—N-[2-cyano-3-[3-[2-[4-[2-[4-[4-[[(3R)-2,6-dioxopiperidin-3-yl]amino]-2-fluorophenyl]piperidin-1-yl]acetyl]piperazin-1-yl]pyrimidin-5-yl]-4-oxoquinazolin-6-yl]oxy-4-fluorophenyl]-3-methoxypyrrolidine-1-sulfonamide]	
		CCN(C)S(=O)(=O)Nc1ccc(F)c(Oc2ccc3ncn(-c4cnc(N5CCN(C(=O)[C@H](CO)N6CCC(c7ccc(N[C@H]8CCC(=O)NC8=O)cc7F)CC6)CC5)nc4)c(=O)c3c2)c1C#N [Example 98, 6-[2-cyano-3-[[ethyl(methyl)sulfamoyl]amino]-6-fluorophenoxy]-3-[2-[4-[(2S)-2-[4-[4-[[(3S)-2,6-dioxopiperidin-3-yl]amino]-2-fluorophenyl]piperidin-1-yl]-3-hydroxypropanoyl]piperazin-1-yl]pyrimidin-5-yl]-4-oxoquinazoline]	10.1%
0.0342 µM	11.4%	CCN(C)S(=O)(=O)Nc1ccc(F)c(Oc2ccc3ncn(-c4cnc(N5CCN(C(=O)CN6CCC(c7ccc(N[C@@H]8CCC(=O)NC8=O)cc7F)CC6)CC5)nc4)c(=O)c3c2OC)c1C#N [Example 99, 6-[2-cyano-3-[[ethyl(methyl)sulfamoyl]amino]-6-fluorophenoxy]-3-[2-[4-[2-[4-[4-[[(3R)-2,6-dioxopiperidin-3-yl]amino]-2-fluorophenyl]piperidin-1-yl]acetyl]piperazin-1-yl]pyrimidin-5-yl]-5-methoxy-4-oxoquinazoline]	

SMILES	DC50 (A375.10 cells, 24 h)	Emax [1]	Emax
CCN(C)S(=O)(=O)Nc1ccc(F)c(Oc2ccc3ncn(-c4cnc(N5CCN(C(=O)CN6CCC(c7cc(OC)c(NC8CCC(=O)NC8=O)cc7F)CC6)CC5)nc4)c(=O)c3c2)c1C#N (stereo not shown) [Example 88, 6-[2-cyano-3-[[ethyl(methyl)sulfamoyl]amino]-6-fluorophenoxy]-3-[2-[4-[2-[4-[4-[(2,6-dioxopiperidin-3-yl)amino]-2-fluoro-5-methoxyphenyl]piperidin-1-yl]acetyl]piperazin-1-yl]pyrimidin-5-yl]-4-oxoquinazoline]	0.0151 µM		9.01%
CCN(C)S(=O)(=O)Nc1ccc(F)c(Oc2ccc3ncn(-c4ccc(N5CCN(C(=O)CN6CCC(c7cc(OC)c(NC8CCC(=O)NC8=O)cc7F)CC6)CC5)nc4)c(=O)c3c2)c1C#N (stereo not shown) [Example 90, 6-[2-cyano-3-[[ethyl(methyl)sulfamoyl]amino]-6-fluorophenoxy]-3-[6-[4-[2-[4-[4-[(2,6-dioxopiperidin-3-yl)amino]-2-fluoro-5-methoxyphenyl]piperidin-1-yl]acetyl]piperazin-1-yl]pyridin-3-yl]-4-oxoquinazoline]	0.0235 µM		10.7%
CCN(C)S(=O)(=O)Nc1ccc(F)c(Oc2ccc3ncn(-c4cnc(N5CCN(C(=O)CN6CCC(c7ccc(N[C@H]8CCC(=O)NC8=O)cc7F)CC6)CC5)nc4)c(=O)c3c2)c1C#N [Example 92, 6-[2-cyano-3-[[ethyl(methyl)sulfamoyl]amino]-6-fluorophenoxy]-3-[2-[4-[2-[4-[4-[[(3S)-2,6-dioxopiperidin-3-yl]amino]-2-fluorophenyl]piperidin-1-yl]acetyl]piperazin-1-yl]pyrimidin-5-yl]-4-oxoquinazoline]	0.00871 µM		7.37%
CCN(C)S(=O)(=O)Nc1ccc(F)c(Oc2ccc3ncn(-c4cnc(N5CCN(C(=O)CN6CCC(c7ccc(N[C@@H]8CCC(=O)NC8=O)cc7F)CC6)CC5)nc4)c(=O)c3c2)c1C#N [Example 95, 6-[2-cyano-3-[[ethyl(methyl)sulfamoyl]amino]-6-fluorophenoxy]-3-[2-[4-[2-[4-[4-[[(3R)-2,6-dioxopiperidin-3-yl]amino]-2-fluorophenyl]piperidin-1-yl]acetyl]piperazin-1-yl]pyrimidin-5-yl]-4-oxoquinazoline]	0.0107 µM		10.4%
CO[C@@H]1CCN(S(=O)(=O)Nc2ccc(F)c(Oc3ccc4ncn(-c5cnc(N6CCN(C(=O)CN7CCC(c8ccc(N[C@H]9CCC(=O)NC9=O)cc8F)CC7)CC6)nc5)c(=O)c4c3)c2C#N)C1 [Example 96, (3R)—N-[2-cyano-3-[3-[2-[4-[2-[4-[4-[[(3S)-2,6-dioxopiperidin-3-yl]amino]-2-fluorophenyl]piperidin-1-yl]acetyl]piperazin-1-yl]pyrimidin-5-yl]-4-oxoquinazolin-6-yl]oxy-4-fluorophenyl]-3-methoxypyrrolidine-1-sulfonamide]	0.00991 µM		8.43%
